For 15 compounds, IC50 results are on record in patent US20240132477A1, “Benzimidazole Derivatives and Their Use As Inhibitors of ITK For The Treatment of Skin Disease” (PFIZER INC., priority 2020, published 2024).

Experiment [1] has as its target IL-2-Inducible T-Cell Kinase (ITK) (Homo sapiens (Human), UniProt Q08881). The experiment in a line: ITK enzyme assay. Format: biochemical. As to conditions: geometric mean of count n; ITK FL enzyme, BTK peptide substrate. The procedure: IL-2-Inducible T-Cell Kinase (ITK) Activity, IC50 (uM)
ITK activity was determined by measuring the effect of a test compound in an ITK enzyme assay.
1.0 M HEPES Buffer pH 7.5 solution was prepared as follows: 238.3 g HEPES free acid (Sigma) and 800 mL of water were combined, and the mixture was stirred until complete dissolution. The pH was adjusted to 7.5 via titration with 5N NaOH and the volume adjusted to 1000 mL. The solution was filtered and sterilized.
ITK assay buffer was prepared as follows: 50 mL of HPLC-grade water was treated with 2 mL of 1.0 M HEPES Buffer, 500 μL of 2% Gelatin (Sigma), 1.0 mL of aqueous MgCl2 solution (1.0 M), and 1.0 mL of aqueous glutathione solution (0.5 M), and the solution was mixed. The solution was brought to 99 mL in a graduated cylinder by addition of water and sterilized through a 0.2 μm filter. 0.1 mL of Brij-35™ Surfact-AmpS™ Detergent Solution (10% w/v aqueous solution, ThermoFisher) and 1.0 mL of ATP (Teknova, 100 mM) were added and the solution was mixed.
Preparation of 1.33×ITK enzyme solution was as follows: 49.99 mL of ITK assay buffer was treated with 4.1 μL of ITK enzyme (ITK FL (N-Flag and C-His tagged, ˜72 kDa) Lake Pharma, 0.25 mg/ml in a buffer containing 25 mM Tris pH 7.8, 150 mM NaCl, 10% glycerol and 2 mM TCEP) and the mixture was gently agitated. The resulting solution was stored on ice. 30 Minutes prior to use, the enzyme solution was removed from ice and equilibrated to RT by incubation in a RT water bath.
Preparation of 4×ITK substrate solution was as follows: 50 mL of ITK assay buffer was treated with 100 μL of BTK peptide (China Peptide Company, 2 mM stock solution in DMSO). The tube was capped, mixed by gently inverting the tube, and then stored on ice. 30 Minutes prior to use, the substrate solution was removed from ice and equilibrated to RT by incubation in a RT water bath.
At the time of assay, 7.5 μL of the 1.33×ITK enzyme solution was added to plate wells containing 0.1 μL of varying concentrations of test compound in DMSO. The plate was incubated 30 min at RT. The plate wells were each treated with 2.5 uL of the 4×ITK substrate solution and the plate was sealed (TopSeal™, Perkin Elmer). The plate was spun at 1000 rpm for 30 sec and then incubated for 60 min at RT. The seal was removed, and each well was treated with 10 μL of Stop/Detect Buffer (20 mM HEPES pH 7.5, 0.01% gelatin, 1 nM LANCE PT66 (Perkin Elmer), 16.5 μg/ml Surelight APC (Perkin Elmer), 10 mM EDTA, 250 mM NaCl). The plate was again covered and was spun at 1000 rpm for 30 seconds. The plate was allowed to incubate overnight at RT and in a closed carrier to reduce dehydration. The seal was removed, and the fluorescence was read with a plate reader with […]. The concentrations and resulting effect values for the tested compound were plotted and the concentration of compound required for 50% effect (IC50) was determined with the four-parameter logistic dose response equation.

Experiment [2] has as its system IL-2 in supernatants from activated CD4+ human T-cells. The experiment in a line: IL-2 inhibition in supernatants from activated CD4+ human T-cells (cisbio HTRF). The class given is cell-based. As to conditions: T-cell; geometric mean of count n; activated CD4+ human T-cells, 20 to 24 hrs; read-out: IL-2 IC50. As to the method:
IL-2-Inhibition Activity, IC50 (uM)
IL-2 inhibition activity in supernatants from activated CD4+ human T-cells was determined by measuring the effect of a test compound on the activity using the cisbio HTRF™ technology.
Human CD4+ T cells were activated with CD3/CD28 for 3 days and expanded for an additional 4-6 days (7 to 9 days total). On day 0, frozen CD4+ T cells were thawed, treated with CD3/CD28 Dynabeads, and incubated at 37° C./5% CO2. On day 3, the beads were removed, and the cells were diluted to 5×10^5 cells/cm^2, placed in G-Rex10 flask, and incubated at 37° C./5% CO2. On day 7 to day 9 the cells were removed from the G-Rex flasks, counted and diluted back to 1×10^6 cells/ml in standard tissue culture flask.
The expanded CD4+ T-cells were centrifuged at 300×g for 10 minutes and resuspended to 0.5 million cells per ml (30,000 cells/well). 60 μl of CD4+ T cells were added per well to a 384 well plate containing 0.1 μL of varying concentrations of test compound in DMSO. The plates were incubated for 15 min at 37° C./5% CO2. 20 μl of diluted ImmunoCult™ (STEMCELL Technologies, 1:12.5 in T cell assay media) were added to all wells of the plate (1:50 final assay concentration). The plates were incubated for an additional 20 to 24 hrs at 37° C./5% CO2. The plates were centrifuged at 300×g for 10 minutes. 16 μL of supernatant was removed and combined with 4 μl of IL-2 HTRF Abs. (cisbio kit). Plates were incubated for 3 hours at RT and read with an EnVision plate reader at 665 nm and 615 nm wavelengths. The concentrations and resulting effect values for the tested compound were plotted and the concentration of compound required for 50% effect (IC50) was determined with the four-parameter logistic dose response equation.

Chain of IL-2-Inducible T-Cell Kinase (ITK) (Q08881 whole entry): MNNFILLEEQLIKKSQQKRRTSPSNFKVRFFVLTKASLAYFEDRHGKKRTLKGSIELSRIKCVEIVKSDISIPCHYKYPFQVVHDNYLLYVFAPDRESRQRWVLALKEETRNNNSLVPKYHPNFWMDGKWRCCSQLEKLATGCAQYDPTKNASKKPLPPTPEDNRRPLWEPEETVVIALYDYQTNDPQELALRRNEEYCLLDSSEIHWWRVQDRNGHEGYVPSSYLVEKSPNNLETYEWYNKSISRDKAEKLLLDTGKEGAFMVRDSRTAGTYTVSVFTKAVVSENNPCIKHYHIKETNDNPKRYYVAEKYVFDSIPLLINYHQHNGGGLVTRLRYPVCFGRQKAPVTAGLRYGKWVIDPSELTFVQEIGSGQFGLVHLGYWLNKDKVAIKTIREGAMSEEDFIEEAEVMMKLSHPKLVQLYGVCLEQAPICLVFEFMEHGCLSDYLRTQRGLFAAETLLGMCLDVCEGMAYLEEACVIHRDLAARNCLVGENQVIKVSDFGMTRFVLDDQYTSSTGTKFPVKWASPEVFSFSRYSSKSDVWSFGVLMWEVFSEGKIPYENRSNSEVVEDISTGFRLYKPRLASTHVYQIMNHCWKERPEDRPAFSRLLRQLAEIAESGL

For orientation: IC50 means the concentration needed to halve the response being measured. Consider `CCN(C(C)=O)c1cc2nc(-c3n[nH]c4c3C[C@@H]3C[C@]3(C)C4)[nH]c2cc1C` [Example 5, N-ethyl-N-(6-methyl-2-((4aS,5aR)-5a-methyl-1,4,4a,5,5a,6-hexahydrocyclopropa[f]indazol-3-yl)-1H-benzo[d]imidazol-5-yl)acetamide], for which the figures for the IC50 in experiment [1] and in experiment [2] were 0.016 µM and 0.086 µM, respectively.

With `Cc1cc2[nH]c(-c3n[nH]c4c3C[C@@H]3C[C@]3(C)C4)nc2cc1N(C)C(=O)CN1CCCCCC1=O` [Example 34, N-Methyl-N-(6-methyl-2-((4aS,5aR)-5a-methyl-1,4,4a,5,5a,6-hexahydrocyclopropa[f]indazol-3-yl)-1H-benzo[d]imidazol-5-yl)-2-(2-oxoazepan-1-yl)acetamide], the IC50 was found to be 0.004 µM in experiment [1] and 0.043 µM in experiment [2].

In the case of `CC(=O)N(C)c1ccc2[nH]c(-c3n[nH]c4c3C[C@H]3C(F)(F)[C@@]3(C)C4)nc2c1` [Example 3, N-(2-((4aR,5aS)-5,5-difluoro-5a-methyl-1,4,4a,5,5a,6-hexahydrocyclopropa[f]indazol-3-yl)-1H-benzo[d]imidazol-5-yl)-N-methylacetamide], the IC50 in experiment [1] stood at 0.821 µM; in experiment [2], 0.848 µM.

`CC(=O)N(C)CC(=O)N(C)c1cc2nc(-c3n[nH]c4c3C[C@@H]3C[C@]3(C)C4)[nH]c2cc1C` [Example 21, N-Methyl-N-(5-methyl-2-((4aS,5aR)-5a-methyl-1,4,4a,5,5a,6-hexahydrocyclopropa[f]indazol-3-yl)-1H-benzo[d]imidazol-6-yl)-2-(N-methylacetamido)acetamide]: the IC50 in experiment [1] is 0.004 µM; in experiment [2], 0.079 µM.

Consider `CC[C@@H](C(=O)N(C)c1cc2nc(-c3n[nH]c4c3C[C@@H]3C[C@]3(C)C4)[nH]c2cc1C)N1CCCC1=O` [Example 27, (S)-N-Methyl-N-(6-methyl-2-((4aS,5aR)-5a-methyl-1,4,4a,5,5a,6-hexahydrocyclopropa[f]indazol-3-yl)-1H-benzo[d]imidazol-5-yl)-2-(2-oxopyrrolidin-1-yl)butanamide], for which the IC50 in experiment [1] worked out at 0.077 µM; in experiment [2], 0.489 µM.

On to `Cc1cc2[nH]c(-c3n[nH]c4c3C[C@@H]3C[C@]3(C)C4)nc2cc1N(C)C(=O)CN1CCCCC1=O` [Example 20, N-Methyl-N-(5-methyl-2-((4aS,5aR)-5a-methyl-1,4,4a,5,5a,6-hexahydrocyclopropa[f]indazol-3-yl)-1H-benzo[d]imidazol-6-yl)-2-(2-oxopiperidin-1-yl)acetamide], for which the IC50 in experiment [1] turned out to be 0.004 µM; in experiment [2] it was 0.059 µM.

For `CCC(=O)N(C)c1cc2nc(-c3n[nH]c4c3C[C@@H]3C[C@]3(C)C4)[nH]c2cc1C` [Example 33, N-Methyl-N-(6-methyl-2-((4aS,5aR)-5a-methyl-1,4,4a,5,5a,6-hexahydrocyclopropa[f]indazol-3-yl)-1H-benzo[d]imidazol-5-yl)propionamide], the IC50 came out at 0.005 µM in experiment [1] and 0.053 µM in experiment [2].

With `C[C@H](C(=O)N(C)c1cc(F)c2nc(-c3n[nH]c4c3C[C@@H]3C[C@]3(C)C4)[nH]c2c1)N1CCCOC1=O` [Example 10, (R)-N-(4-fluoro-2-((4aS,5aR)-5a-methyl-1,4,4a,5,5a,6-hexahydrocyclopropa[f]indazol-3-yl)-1H-benzo[d]imidazol-6-yl)-N-methyl-2-(2-oxo-1,3-oxazinan-3-yl)propenamide], the IC50 in experiment [1] turned out to be 0.049 µM; in experiment [2] it was 0.342 µM.

Turning to `Cc1cc2nc(-c3n[nH]c4c3C[C@@H]3C[C@]3(C)C4)[nH]c2cc1N(C)C(=O)C1C[C@@H]2[C@H](C1)C2(F)F` (stereo partly drawn) [Example 13, (1R,5S)-6,6-difluoro-N-methyl-N-(5-methyl-2-((4aS,5aR)-5a-methyl-1,4,4a,5,5a,6-hexahydrocyclopropa[f]indazol-3-yl)-1H-benzo[d]imidazol-6-yl)bicyclo[3.1.0]hexane-3-carboxamide], the IC50 in experiment [1] turned out to be 0.007 µM; in experiment [2], 0.049 µM.

With `Cc1cc2[nH]c(-c3n[nH]c4c3C[C@@H]3C[C@]3(C)C4)nc2cc1N(C)C(=O)C(C)C` [Example 22, N-Methyl-N-(5-methyl-2-((4aS,5aR)-5a-methyl-1,4,4a,5,5a,6-hexahydrocyclopropa[f]indazol-3-yl)-1H-benzo[d]imidazol-6-yl)isobutyramide], the IC50 in experiment [1] is 0.005 µM; in experiment [2], 0.043 µM.

As to `COC(C)(C)C(=O)N(C)c1cc2nc(-c3n[nH]c4c3C[C@@H]3C[C@]3(C)C4)[nH]c2cc1C` [Example 39, 2-Methoxy-N,2-dimethyl-N-(6-methyl-2-((4aS,5aR)-5a-methyl-1,4,4a,5,5a,6-hexahydrocyclopropa[f]indazol-3-yl)-1H-benzo[d]imidazol-5-yl)propenamide], the IC50 was 0.074 µM in experiment [1] and 0.268 µM in experiment [2].

Consider `Cc1cc2[nH]c(-c3n[nH]c4c3C[C@@H]3C[C@]3(C)C4)nc2cc1N(C)C(=O)C1(F)CC1` [Example 32, 1-Fluoro-N-methyl-N-(6-methyl-2-((4aS,5aR)-5a-methyl-1,4,4a,5,5a,6-hexahydrocyclopropa[f]indazol-3-yl)-1H-benzo[d]imidazol-5-yl)cyclopropane-1-carboxamide], for which the IC50 in experiment [1] amounted to 0.008 µM; in experiment [2], 0.118 µM.

Consider `Cc1cc2nc(-c3n[nH]c4c3C[C@@H]3C[C@]3(C)C4)[nH]c2cc1N(C)C(=O)C1(F)CCOCC1` [Example 12, 4-fluoro-N-methyl-N-(5-methyl-2-((4aS,5aR)-5a-methyl-1,4,4a,5,5a,6-hexahydrocyclopropa[f]indazol-3-yl)-1H-benzo[d]imidazol-6-yl)tetrahydro-2H-pyran-4-carboxamide], for which the half-maximal inhibitory concentration (IC50) in experiment [1] came to 0.007 µM; in experiment [2], 0.047 µM.

With `C[C@@H](C(=O)N(C)c1cc(F)c2nc(-c3n[nH]c4c3C[C@@H]3C[C@]3(C)C4)[nH]c2c1)N1CCCOC1=O` [Example 11, (S)-N-(4-fluoro-2-((4aS,5aR)-5a-methyl-1,4,4a,5,5a,6-hexahydrocyclopropa[f]indazol-3-yl)-1H-benzo[d]imidazol-6-yl)-N-methyl-2-(2-oxo-1,3-oxazinan-3-yl)propenamide], the IC50 in experiment [1] stood at 0.031 µM; in experiment [2], 0.324 µM.

As to `CC(=O)N(C)c1cc2nc(-c3n[nH]c4c3C[C@@H]3C[C@]3(C)C4)[nH]c2c(F)c1C` [Example 8, N-(7-fluoro-6-methyl-2-((4aS,5aR)-5a-methyl-1,4,4a,5,5a,6-hexahydrocyclopropa[f]indazol-3-yl)-1H-benzo[d]imidazol-5-yl)-N-methylacetamide], the IC50 amounted to 0.02 µM in experiment [1] and 0.129 µM in experiment [2].
